One data set addresses cytochrome P450 2C9 (Homo sapiens (Human), UniProt P11712). The experiment in a line: Cytochrome P450 2C9 inhibition. In kind it is in vitro ADME. The settings on record: human liver microsomes, Diclofenac hydroxylation; read-out: IC50 CYP2C9 inhibition. As to the method:
Assay for Determination of Cytochrome P450 2C9 Inhibition
All assays are carried out on a robotic system in 96 well plates. The final incubation volume contains TRIS buffer (0.1 M), MgCl2 (5 mM), human liver microsomes (0.1 mg/ml), Diclofenac (10 μM) and the test compound at five different concentrations or no compound (high control) in duplicate (e.g. highest concentration 10-50 μM with subsequent serial 1:4 dilutions). Following a short preincubation period, reactions are started with the cofactor (NADPH, 1 mM) and stopped by cooling the incubation down to 8° C. and subsequently by addition of one volume of acetonitrile. An internal standard solution—usually the stable isotope of the formed metabolite—is added after quenching of incubations. Peak area analyte (=metabolite formed) and internal standard is determined by LC-MS/MS. The resulting peak area ratio analyte to internal standard in these incubations is compared to a control activity containing no test compound.
If the inhibition of the reaction is already >50% at the lowest concentration of the test compound, the IC50 is assigned “<lowest concentration tested” (usually <0.4 μM). If the inhibition of the reaction is still <50% at the highest concentration of the test compound, the IC50 is assigned “>highest concentration tested” (usually >50 μM).

The next data set deals with hERG potassium channel (Homo sapiens (Human), UniProt Q12809). Briefly: hERG inhibition patch clamp assay. In kind it is cell-based. The conditions noted are these: human, @ 10 μM. The text has this:
Calculations: Fold induction=(Enzyme mRNA Compound)/(Enzyme mRNA Solvent Control) Inducer Potency=(Fold Compound)/(Fold Rifampicin)*100 Assay for Determination of hERG Inhibition
The inhibition of the hERG (human ether-a-go-go-related gene) potassium channel can be determined as described in Rast, G., & Guth, B. D., Journal of Pharmacological and Toxicological Methods (2014), http://dx.doi.org/10.1016/j.vasen.2014.08.001.

Sequence of cytochrome P450 2C9 (P11712 whole entry): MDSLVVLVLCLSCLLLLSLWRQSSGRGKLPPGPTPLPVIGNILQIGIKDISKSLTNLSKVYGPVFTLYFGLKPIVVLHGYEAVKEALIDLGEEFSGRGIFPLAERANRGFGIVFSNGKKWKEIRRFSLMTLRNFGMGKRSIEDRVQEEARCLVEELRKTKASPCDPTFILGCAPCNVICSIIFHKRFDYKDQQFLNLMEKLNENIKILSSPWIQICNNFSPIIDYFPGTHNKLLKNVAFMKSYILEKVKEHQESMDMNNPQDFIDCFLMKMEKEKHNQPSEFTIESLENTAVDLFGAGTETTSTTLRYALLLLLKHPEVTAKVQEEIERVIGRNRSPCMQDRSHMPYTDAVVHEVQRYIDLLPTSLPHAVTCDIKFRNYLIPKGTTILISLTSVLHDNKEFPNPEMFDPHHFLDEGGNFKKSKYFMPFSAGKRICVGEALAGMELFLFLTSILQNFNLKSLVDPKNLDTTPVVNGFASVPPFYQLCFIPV
Sequence of hERG potassium channel (Q12809 whole entry): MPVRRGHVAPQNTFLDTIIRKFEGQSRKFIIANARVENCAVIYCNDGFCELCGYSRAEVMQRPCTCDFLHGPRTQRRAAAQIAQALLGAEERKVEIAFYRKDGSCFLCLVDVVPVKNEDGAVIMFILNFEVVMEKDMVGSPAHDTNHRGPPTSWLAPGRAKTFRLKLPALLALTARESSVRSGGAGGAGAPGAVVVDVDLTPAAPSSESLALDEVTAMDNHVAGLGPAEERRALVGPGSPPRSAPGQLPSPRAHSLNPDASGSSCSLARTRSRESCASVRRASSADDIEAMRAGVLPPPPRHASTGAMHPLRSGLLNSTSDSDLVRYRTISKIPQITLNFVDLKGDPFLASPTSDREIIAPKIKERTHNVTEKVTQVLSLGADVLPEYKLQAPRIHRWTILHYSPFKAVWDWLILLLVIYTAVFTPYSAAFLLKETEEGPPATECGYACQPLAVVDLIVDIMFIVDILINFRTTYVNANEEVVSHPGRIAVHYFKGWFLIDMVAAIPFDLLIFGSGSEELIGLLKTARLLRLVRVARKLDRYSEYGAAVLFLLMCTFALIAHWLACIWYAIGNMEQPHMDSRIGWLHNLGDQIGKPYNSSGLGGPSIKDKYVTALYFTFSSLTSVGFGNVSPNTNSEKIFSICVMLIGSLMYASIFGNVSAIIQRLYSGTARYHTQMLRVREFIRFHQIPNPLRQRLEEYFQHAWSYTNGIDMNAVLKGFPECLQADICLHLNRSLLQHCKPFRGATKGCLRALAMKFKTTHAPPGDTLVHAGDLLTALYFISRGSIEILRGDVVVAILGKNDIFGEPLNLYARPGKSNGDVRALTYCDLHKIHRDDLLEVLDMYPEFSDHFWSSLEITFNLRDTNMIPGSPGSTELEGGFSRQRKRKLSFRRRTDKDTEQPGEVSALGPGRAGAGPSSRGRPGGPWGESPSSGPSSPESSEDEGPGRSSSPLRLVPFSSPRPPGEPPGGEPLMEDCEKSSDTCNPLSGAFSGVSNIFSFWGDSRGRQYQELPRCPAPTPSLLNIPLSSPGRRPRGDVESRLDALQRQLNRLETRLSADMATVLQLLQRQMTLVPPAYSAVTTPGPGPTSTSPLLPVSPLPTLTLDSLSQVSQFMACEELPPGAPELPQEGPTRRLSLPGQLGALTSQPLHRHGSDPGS

The term IC50 denotes the concentration needed to halve the response being measured. With `CNC(=O)c1cc(C#N)ccc1[C@@H]1C(C(C)=O)=C(C)N(c2cccc(C(F)(F)F)c2)C(=O)N1C` [Example 13.1], at cytochrome P450 2C9, the IC50 was more than 50 µM.
In general, inhibition refers to the change of the read-out against control, counted positive when it falls. Read a low inhibition as little suppression. In turn, `CC(=O)C1=C(C)N(c2cccc(C(F)(F)F)c2)C(=O)N(C)[C@@H]1c1ccc(C#N)cc1-c1ccc(=O)n(C)c1` [Example 16, 4-[(R)-5-Acetyl-3,6-dimethyl-2-oxo-1-(3-trifluoromethyl-phenyl)-1,2,3,4-tetrahydro-pyrimidin-4-yl]-3-(1-methyl-6-oxo-1,6-dihydro-pyridin-3-yl)-benzonitrile] yielded an inhibition at 10 µM at hERG potassium channel of 8%. For the same molecule, at cytochrome P450 2C9, the IC50 was more than 50 µM.

Values taken from patent US9290457B2, “Substituted dihydropyrimidinones and their use as inhibitors of neutrophil elastase activity” (Boehringer Ingelheim International GmbH, priority 2014, dated 2016).
